We go through one molecule from patent US20090170897A1, “Method of Treating Neuropathic Pain” (Pfizer, Inc., priority 2004, published 2009).

Structures are written as SMILES.

In test [1] the test system is Streptozocin (STZ)-induced diabetes neuropathy in the rat. Nature of the test: STZ-induced dynamic allodynia (cotton bud, PWL). The test is classed as in vivo. As to the method: (§1) Male Sprague Dawley rats weighing 150-400 g obtained from Charles River (Manston, Kent, UK.) were housed in groups of 3. All animals were kept under a 12 h light/dark cycle (lights on at 07 h 00 min) with food and water ad libitum. All experiments were carried out by an observer blind to the treatments and in accordance with the Home Office Animals (Scientific Procedures) Act 1986.
Diabetes was induced by a single intraperitoneal injection of streptozotocin (50 mg/kg) freshly dissolved in 0.9% sterile saline. Streptozotocin injection induces a reproducible mechanical allodynia within 3 weeks, lasting for at least 7 weeks (Chen and Pan, (Chen S R and Pan H L. Hypersensitivity of Spinothalamic Tract Neurons Associated With Diabetic Neuropathic Pain in Rats. J Neurophysiol 87: 2726-2733, 2002).
Dynamic allodynia was assessed by lightly stroking the plantar surface of the hind paw with a cotton bud. To avoid recording general motor activity, care was taken to perform this procedure in fully habituated rats that were not active. At least two measurements were taken at each time point, the mean of which represented the paw withdrawal latency (PWL). […] A pain withdrawal response was often accompanied with repeated flinching or licking of the paw. Dynamic allodynia was considered to be present if animals responded to the cotton stimulus within 8 sec of commencing stroking (Field et al, 1999).
(§2) All the experiments were conducted blind. Static allodynia was expressed as median [LQ; UQ] and analysed by Mann Whitney U test. Dynamic allodynia and thermal hyperalgesia were expressed as arithmetic mean±SEM and analysed by ANOVA.

In test [2] the test system is Carrageenan-induced thermal hyperalgesia (CITH) in the rat. Nature of the test: Carrageenan-induced thermal hyperalgesia (CITH), rat plantar test. The test is classed as in vivo. The following applies: 25 mg/kg PO. As to the method:
as §1
Thermal hyperalgesia was assessed using the rat plantar test (Ugo Basile, Comerio, Italy), according to a method modified by Hargreaves et al. (1988). Briefly, rats were habituated to the apparatus that consisted of three individual Perspex boxes on a glass table. A mobile radiant heat source was located under the table and focused onto the desired paw. Paw withdrawal latencies (PWLs) were recorded three times for both hind paws of each animal, the mean of which represented baseline for left and right hind paws. The apparatus was calibrated to give a PWL of approximately 10 s in naïve rats. To prevent tissue damage of the plantar zone, a 22.5 sec cut-off was observed. Lambda carrageenan was injected intraplantarly (100 μl, 20 mg/ml) the right hind paw and baseline recordings of PWT were taken 2 hr post administration.
as §2

For test [3], the system named is Chronic Constriction Injury (CCI) rat model of neuropathic pain. Kind of test: CCI-induced static allodynia (von Frey hairs, PWT). Format: in vivo. The method, then:
as §1
The CCI of sciatic nerve was performed as previously described by Bennett and Xie (Bennett G J, Xie Y K. A peripheral mononeuropathy in rat that produces disorders of pain sensation like those seen in man. Pain:33:87-107, 1988). Animals were anaesthetised with a 2% isofluorane/O2 mixture. The right hind thigh was shaved and swabbed with 1% iodine. Animals were then transferred to a homeothermic blanket for the duration of the procedure and anaesthesia maintained during surgery via a nose cone. The skin was cut along the line of the thighbone. The common sciatic nerve was exposed at the middle of the thigh by blunt dissection through biceps femoris. About 7 mm of nerve was freed proximal to the sciatic trifurcation, by inserting forceps under the nerve and the nerve gently lifted out of the thigh. Suture was pulled under the nerve using forceps and tied in a simple knot until slight resistance was felt and then double knotted. The procedure was repeated until 4 ligatures (4-0 silk) were tied loosely around the nerve with approx 1 mm spacing. The incision was closed in layers.
Animals were habituated to wire bottom test cages prior to the assessment of allodynia. Static allodynia was evaluated by application of von Frey hairs (Stoelting, Wood Dale, Ill., USA.) in ascending order of force (0.6, 1, 1.4, 2, 4, 6, 8, 10, 15 and 26 grams) to the plantar surface of hind paws. Each von Frey hair was applied to the paw for a maximum of 6 sec, or until a withdrawal response occurred. Once a withdrawal response to a von Frey hair was established, the paw was re-tested, starting with the filament below the one that produced a withdrawal, and subsequently with the remaining filaments in descending force sequence until no withdrawal occurred. The highest force of 26 g lifted the paw as well as eliciting a response, thus represented the cut off point. Each animal had both hind paws tested in this manner. The lowest amount of force required to elicit a response was recorded as paw withdrawal threshold (PWT) in grams. Static allodynia was defined as present if animals responded to a stimulus of, or less than, 4 g, which is innocuous in naive rats (Field M J, Bramwell S, Hughes J, Singh L. Detection of static and dynamic components of mechanical allodynia in rat models of neuropathic pain: are they signalled by distinct primary sensory neurones? Pain, 1999; 83:303-11).
as §2

The target of a further test is T1, CRTH2 receptor (Homo sapiens, UniProt Q9Y5Y4).
T1 construct: Flag peptide (behind a 'prolac' signal peptide) (N); expressed in transfected cells
T1 sequence (Q9Y5Y4 1-395): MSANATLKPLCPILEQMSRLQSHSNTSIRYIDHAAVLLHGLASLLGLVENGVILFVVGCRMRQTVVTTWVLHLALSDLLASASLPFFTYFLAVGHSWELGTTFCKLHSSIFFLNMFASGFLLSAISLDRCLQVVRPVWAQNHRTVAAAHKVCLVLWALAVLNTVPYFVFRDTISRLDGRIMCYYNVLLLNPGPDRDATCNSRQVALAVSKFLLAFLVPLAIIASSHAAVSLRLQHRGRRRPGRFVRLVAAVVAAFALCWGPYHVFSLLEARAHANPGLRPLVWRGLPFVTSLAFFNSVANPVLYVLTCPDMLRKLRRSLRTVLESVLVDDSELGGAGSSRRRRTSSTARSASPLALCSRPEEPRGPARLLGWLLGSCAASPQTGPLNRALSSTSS
Nature of the test: competition binding of 3H-PGD2 at CRTH2 and DP receptors (selectivity). The following applies: competition with 3H-PGD2 binding, IC50 at both receptors. As to the method: A CRTH2 receptor ligand or antagonist, can be tested for selectivity for the CRTH2 receptor in comparison with DP. In the assay, the capacity of each test compound to compete with binding of ^3H-PGD2 is measured at both the CRTH2 and DP receptors, and an IC50 value (in μM) is determined. Controls can be set up using cold PGD2 to compete with ^3H-PGD2. Any of the above mentioned binding assay procedures can be used. Selectivity of CRTH2 receptor antagonists should be at least 10 fold compared to other GPCRs especially the D type of prostanoid receptor or DP receptor (N-cyclopropyl-N-[2-methyl-1-(pyridine-3-carbonyl)-1,2,3,4-tetrahydro-quinolin-4-yl]-acetamide is >50 fold selective), preferably it should be at least 100 fold selective and even more preferably at least 1000 fold selective, alternatively the antagonist should be selective for CRTH2 receptor over any of the receptors C3a, C5a, FMLP, LTB4, GPCR0269, GPCR0232 or GPCR0288.

As for `CC(=O)N(C1CC1)C1CC(C)N(C(=O)c2cccnc2)c2ccccc21` (centres unmarked) [N-cyclopropyl-N-[2-methyl-1-(pyridine-3-carbonyl)-1,2,3,4-tetrahydro-quinolin-4-yl]-acetamide], in test [1] (25 mg/kg PO), the “duration of biologically relevant effect, STZ dynamic allodynia” value is on record as “up to 2 hr”. In test [1] (25 mg/kg PO, post compound dose), the “time of peak effect, STZ dynamic allodynia” value was determined as 1 h. Besides, the “effect on maintenance of STZ-induced dynamic allodynia” value in test [1] (compound 25 mg/kg PO, gabapentin 100 mg/kg PO (positive control)) is on record as “reversed”. Also, in test [2], the “effect in the contralateral paw” value is recorded as “no effect” and the “effect on maintenance of thermal hyperalgesia (ipsilateral paw)” value is recorded as “completely reversed”. Moreover, the “paw withdrawal latency at peak effect (mean±SEM)” value in test [2] (2 h post administration, ipsilateral paw, vehicle 3.9±0.2) was determined as 10.1±0.6. In addition, the “time of peak effect, thermal hyperalgesia” value in test [2] (post administration) amounted to 2 h. In addition, in test [2] (post compound administration), the “duration of anti-hyperalgesic effect” value turned out to be 5 h. Further, the “time of peak effect, static allodynia” value in test [3] (25 mg/kg PO (MED), post administration) was found to be 1 h. In test [3] (12.5, 25 and 50 mg/kg PO, from 14 days post surgery), the “effect on maintenance of CCI-induced static allodynia” value was “reversed the maintenance of CCI-induced static and dynamic allodynia in a dose dependent manner”. For the same molecule, the “MED, static allodynia” value in test [3] (PO) was 25 mg/kg. Moreover, the “static allodynia reversal relative to gabapentin” value in test [3] (highest dose (50 mg/kg PO) vs gabapentin 100 mg/kg PO) is on record as “curve profile comparable to gabapentin”. The “onset of anti-allodynic effect, static allodynia” value in test [3] (highest dose (50 mg/kg PO), post dose, p<0.01 vs vehicle) turned out to be 30 min. Also, the “selectivity for CRTH2 receptor compared to DP receptor” value at CRTH2 receptor is recorded as above 50 fold.
